In PubChem BioAssay (NCI) one finds TGI and GI50 data, which are given here for nine molecules.

Several values for one entry are separate records, joined by “and”; a condition that tells them apart may be missing. Identical values can stand only once.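 Values below derive from 48-hour exposures of cells grown in 96-well plates, with endpoints linearly interpolated between the two concentrations bracketing the appropriate inhibition level. Here, GI50 denotes the concentration required for 50% inhibition of growth. TGI: concentration producing complete growth inhibition.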

Some test systems named below: A549 NSCLC; BT-549 breast; HL-60(TB) leukemia; LOX IMVI melanoma; MALME-3M melanoma; SF-539 CNS; SK-MEL-2 melanoma; SNB-19 CNS; TK-10 renal; HOP-92 NSCLC.
What all share (assay): NCI anticancer screen, dose series, 48 h

Regarding `Cc1cc(Oc2cnc(=O)[nH]c2)cs1`, the TGI with A549 NSCLC, with BT-549 breast, in the assay on HL-60(TB) leukemia, in the assay on LOX IMVI melanoma, in the assay on MALME-3M melanoma and in the assay on SF-539 CNS was more than 100 µM in each case. The TGI in the assay on SK-MEL-2 melanoma, with SNB-19 CNS and in the assay with TK-10 renal was more than 100 µM each time.
Consider `CC1(C)CCC[C@]2(C)c3cc(O)ccc3CC[C@@H]12`, for which the GI50 in the assay with A549 NSCLC was 19 µM; with BT-549 breast, 19.4 µM; with HL-60(TB) leukemia it was 16 µM; in the assay on LOX IMVI melanoma it was 16.9 µM; in the assay on SF-539 CNS it was 18.3 µM; with SK-MEL-2 melanoma, 20.1 µM. The GI50 in the assay with SNB-19 CNS is 17 µM; with TK-10 renal it was 18.2 µM. Moreover, the TGI is 36.5 µM in the assay with A549 NSCLC; 33.5 µM in the assay on BT-549 breast; 48.5 µM in the assay with HL-60(TB) leukemia; 33.7 µM in the assay with LOX IMVI melanoma; 33.1 µM with SF-539 CNS; 43 µM with SK-MEL-2 melanoma. The TGI is 33.9 µM in the assay with SNB-19 CNS and 33.7 µM in the assay on TK-10 renal.
Take `O=C1c2cc(-c3ccccc3)ccc2-c2c1c1ccc([N+](=O)[O-])cc1c(=O)n2CCCBr`: the GI50 with A549 NSCLC is more than 50 µM; in the assay with BT-549 breast it was more than 50 µM; in the assay on HOP-92 NSCLC it was 17.8 µM; in the assay with LOX IMVI melanoma, more than 50 µM; in the assay with SF-539 CNS, more than 28.7 µM; in the assay with SK-MEL-2 melanoma it was more than 50 µM. Also, the GI50 with SNB-19 CNS was more than 36.8 µM; in the assay on TK-10 renal, 17.5 µM. In addition, the TGI was more than 50 µM in the assay on A549 NSCLC; more than 50 µM in the assay on BT-549 breast; more than 50 µM in the assay with HOP-92 NSCLC; more than 50 µM with LOX IMVI melanoma; more than 43.4 µM in the assay with MALME-3M melanoma; more than 50 µM in the assay on SF-539 CNS. Moreover, the TGI in the assay on SK-MEL-2 melanoma, in the assay with SNB-19 CNS and in the assay on TK-10 renal was more than 50 µM in each case.
Regarding `COc1cc2c(cc1OC)C(CC1(O)CCCCC1)N(S(=O)(=O)c1ccc(C)cc1)CC2` (centres undefined), the GI50 in the assay with A549 NSCLC, with BT-549 breast, with HOP-92 NSCLC, in the assay with LOX IMVI melanoma, with MALME-3M melanoma and in the assay with SF-539 CNS was more than 10 µM in each case. Moreover, the GI50 with SK-MEL-2 melanoma, in the assay with SNB-19 CNS and in the assay with TK-10 renal was more than 10 µM throughout. Further, the TGI in the assay on A549 NSCLC, in the assay on BT-549 breast, in the assay with HOP-92 NSCLC, with LOX IMVI melanoma, in the assay on MALME-3M melanoma and in the assay on SF-539 CNS was more than 10 µM in each case. For the same molecule, the TGI with SK-MEL-2 melanoma, with SNB-19 CNS and in the assay with TK-10 renal was more than 10 µM each time.
`COc1ccc2c(c1)CCc1[nH]nc(-c3cc(OC)c(OC)c(OC)c3)c1-2`: the GI50 with A549 NSCLC, in the assay on BT-549 breast, with HOP-92 NSCLC, in the assay with LOX IMVI melanoma, with MALME-3M melanoma and with SF-539 CNS was less than 0.01 µM in each case. The GI50 in the assay with SK-MEL-2 melanoma and with SNB-19 CNS was less than 0.01 µM throughout. In addition, the TGI in the assay on A549 NSCLC was 19.5 µM; in the assay with BT-549 breast it was 10.6 µM; in the assay with HOP-92 NSCLC, 28.5 µM; in the assay with LOX IMVI melanoma, 11.8 µM; with MALME-3M melanoma, 33.9 µM; with SF-539 CNS, less than 0.01 µM. The TGI turned out to be 26.8 µM in the assay on SK-MEL-2 melanoma and 46.2 µM in the assay on SNB-19 CNS.
As to `COc1cc(F)cc([C@@H](CO)NC(=O)[C@@H](C)N2Cc3ccc(-c4nc(NC5CCOCC5)ncc4Cl)cc3C2=O)c1`, the GI50 with A549 NSCLC was 0.566 µM; with BT-549 breast, 5.43 µM; with HL-60(TB) leukemia, less than 0.01 µM; in the assay with HOP-92 NSCLC, 0.0321 µM; in the assay with LOX IMVI melanoma, less than 0.0181 µM; in the assay with MALME-3M melanoma, less than 0.01 µM. The GI50 is 5.33 µM in the assay with SF-539 CNS, 1.73 µM in the assay on SNB-19 CNS and 0.0624 µM in the assay with TK-10 renal. The TGI in the assay on A549 NSCLC is more than 100 µM; in the assay on BT-549 breast, 24.3 µM; in the assay on HL-60(TB) leukemia, 0.859 µM; in the assay with HOP-92 NSCLC, 0.26 µM; in the assay with LOX IMVI melanoma it was 11.8 µM; in the assay with MALME-3M melanoma, less than 0.01 µM. Moreover, the results for the TGI with SF-539 CNS, in the assay on SNB-19 CNS and with TK-10 renal were 33.9 µM, more than 100 µM and more than 76.8 µM, respectively.
For `CC(=O)C1COC(O)C1C` (centres undefined), the TGI in the assay with A549 NSCLC is more than 100 µM; in the assay on BT-549 breast, more than 100 µM; in the assay with HL-60(TB) leukemia, 39.7 µM; in the assay with HOP-92 NSCLC, 78.7 µM; with LOX IMVI melanoma it was 39.4 µM; in the assay with SF-539 CNS, 45.4 µM. For the same molecule, the TGI in the assay with SK-MEL-2 melanoma was 29.1 µM; in the assay on SNB-19 CNS it was more than 100 µM; in the assay with TK-10 renal, more than 100 µM.
As to `O=CC(Br)C(Br)c1ccccc1` (centres undefined), the GI50 is 21.1 µM in the assay with A549 NSCLC; 2.77 µM in the assay with BT-549 breast; 0.462 µM with HL-60(TB) leukemia; 1.52 µM in the assay on HOP-92 NSCLC; 0.665 µM in the assay on LOX IMVI melanoma; 1.87 µM in the assay with SF-539 CNS. Also, the results for the GI50 in the assay on SK-MEL-2 melanoma, in the assay on SNB-19 CNS and with TK-10 renal were 2.85 µM, 12.8 µM and 1.74 µM, respectively. Moreover, the TGI in the assay on A549 NSCLC was determined as 49.9 µM; with BT-549 breast it was 8.47 µM; in the assay on HL-60(TB) leukemia, 2.32 µM; in the assay with HOP-92 NSCLC, 2.89 µM; with LOX IMVI melanoma, 1.83 µM; in the assay on SF-539 CNS, 4.36 µM. The TGI in the assay on SK-MEL-2 melanoma came out at 9.11 µM; with SNB-19 CNS it was 26.2 µM; in the assay on TK-10 renal, 3.56 µM.
`CC(=O)OC(C)(C)/C=C/C(=O)[C@](C)(O)[C@H]1[C@H](O)C[C@@]2(C)[C@@H]3CC=C4[C@@H](C[C@H](O)C(=O)C4(C)C)[C@]3(CO)C(=O)C[C@]12C`: the GI50 with A549 NSCLC is 0.273 µM; in the assay with HL-60(TB) leukemia, 0.3 µM; in the assay on HOP-92 NSCLC, 0.282 µM; in the assay on LOX IMVI melanoma, 0.0999 µM; in the assay with MALME-3M melanoma it was 0.0838 µM; in the assay with SF-539 CNS, 0.173 µM. Moreover, the values for the GI50 in the assay with SK-MEL-2 melanoma, in the assay with SNB-19 CNS and with TK-10 renal were 0.0339 µM, 0.213 µM and 0.251 µM, respectively. Moreover, the TGI in the assay with A549 NSCLC is 22.6 µM; with HL-60(TB) leukemia it was 0.922 µM and 1.33 µM; in the assay on HOP-92 NSCLC it was 0.435 µM and 0.454 µM; with LOX IMVI melanoma it was 0.492 µM and 0.455 µM; in the assay on MALME-3M melanoma, 0.936 µM and 4.69 µM; in the assay with SF-539 CNS, 0.658 µM and 0.472 µM. The TGI in the assay on SK-MEL-2 melanoma is 0.416 µM and 0.104 µM; in the assay on SNB-19 CNS, 0.58 µM and 0.559 µM; with TK-10 renal it was 0.318 µM and 0.512 µM.
